PubChem BioAssay AID2060905 (Molecular Pharmacology Branch, DTP, NCI, 2025)

Test system: 282377-053-R-J1-PDC complex spheroid viability
Test: Anticancer human tumor 282377-053-R-J1-PDC patient-derived colon adenocarcinoma cell line growth inhibition [RAS]
Settings: for IC50: curve of first compound; for viability, T/C: stronger effect = lower value
How it was run: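 Agents were tested in combination matrices in half-log decrements from a top concentration at or near clinical Cmax (10 microM if undetermined). Targets were multi-cell spheroids of tumour lines plus HUVEC and MSC stromal cells.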
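Further: spheroids exposed to agents for seven days before readout.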
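Wherever viability, T/C is given: luminescence viability as percent of DMSO vehicle control wells.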

## Cc1nc(N2CCC3(CC2)COC(C)C3N)c(CO)nc1Sc1ccnc(N)c1Cl (configuration not stated) + CCn1c(-c2cc(N3CCN(C)CC3)cnc2C(C)OC)c2c3cc(ccc31)-c1csc(n1)CC(NC(=O)C1CC1C)C(=O)N1CCCC(N1)C(=O)OCC(C)(C)C2
Second compound 0.000949 µM
  IC50: > 10 µM
Second compound 0.003 µM
  IC50: > 10 µM
Second compound 0.00949 µM
  IC50: > 10 µM
Second compound 0.03 µM
  IC50: > 10 µM
Second compound 0.0949 µM
  IC50: > 10 µM
Second compound 0.3 µM
  IC50: > 10 µM
Second compound 0.000949 µM, first compound 0.0316 µM
  viability, T/C: 88.7%
Second compound 0.000949 µM, first compound 0.1 µM
  viability, T/C: 92.8%
Second compound 0.000949 µM, first compound 0.316 µM
  viability, T/C: 89.5%
Second compound 0.000949 µM, first compound 1 µM
  viability, T/C: 87.7%
Second compound 0.000949 µM, first compound 3.16 µM
  viability, T/C: 76.8%
Second compound 0.000949 µM, first compound 10 µM
  viability, T/C: 96.8%
Second compound 0.003 µM, first compound 0.0316 µM
  viability, T/C: 80.6%
Second compound 0.003 µM, first compound 0.1 µM
  viability, T/C: 94.4%
Second compound 0.003 µM, first compound 0.316 µM
  viability, T/C: 78.7%
Second compound 0.003 µM, first compound 1 µM
  viability, T/C: 80.5%
Second compound 0.003 µM, first compound 3.16 µM
  viability, T/C: 94.8%
Second compound 0.003 µM, first compound 10 µM
  viability, T/C: 96.5%
Second compound 0.00949 µM, first compound 0.0316 µM
  viability, T/C: 82.7%
Second compound 0.00949 µM, first compound 0.1 µM
  viability, T/C: 64.8%
Second compound 0.00949 µM, first compound 0.316 µM
  viability, T/C: 74.6%
Second compound 0.00949 µM, first compound 1 µM
  viability, T/C: 105%
Second compound 0.00949 µM, first compound 3.16 µM
  viability, T/C: 74.5%
Second compound 0.00949 µM, first compound 10 µM
  viability, T/C: 94%
Second compound 0.03 µM, first compound 0.0316 µM
  viability, T/C: 80.6%
Second compound 0.03 µM, first compound 0.1 µM
  viability, T/C: 82.2%
Second compound 0.03 µM, first compound 0.316 µM
  viability, T/C: 90.1%
Second compound 0.03 µM, first compound 1 µM
  viability, T/C: 85.3%
Second compound 0.03 µM, first compound 3.16 µM
  viability, T/C: 88%
Second compound 0.03 µM, first compound 10 µM
  viability, T/C: 91.1%
Second compound 0.0949 µM, first compound 0.0316 µM
  viability, T/C: 69.7%
Second compound 0.0949 µM, first compound 0.1 µM
  viability, T/C: 93.5%
Second compound 0.0949 µM, first compound 0.316 µM
  viability, T/C: 88.9%
Second compound 0.0949 µM, first compound 1 µM
  viability, T/C: 78.6%
Second compound 0.0949 µM, first compound 3.16 µM
  viability, T/C: 95.5%
Second compound 0.0949 µM, first compound 10 µM
  viability, T/C: 93.8%
Second compound 0.3 µM, first compound 0.0316 µM
  viability, T/C: 80.5%
Second compound 0.3 µM, first compound 0.1 µM
  viability, T/C: 88.8%
Second compound 0.3 µM, first compound 0.316 µM
  viability, T/C: 91.1%
Second compound 0.3 µM, first compound 1 µM
  viability, T/C: 105%
Second compound 0.3 µM, first compound 3.16 µM
  viability, T/C: 112%
Second compound 0.3 µM, first compound 10 µM
  viability, T/C: 89.8%
